In brackets after ≈: the same amount, converted by molar mass.
Tests used:
C. neoformans [1] = assay: In vitro susceptibility testing (MIC / IC80); assay type: cell-based, Cryptococcus neoformans; settings: Cryptococcus neoformans; Tables 1-3
Description: Minimal inhibitory concentration (MIC) was determined following the methods of the Clinical Laboratory Standards Institutes (CLSI) with modifications. MIC studies used either RPMI or YNB medium (pH 7.0, 0.2% glucose) buffered with HEPES. […] The compound was serially diluted from 32 to 0.03 μg/ml or 19 to 0.02 μg/ml respectively in a 96 well plate with the respective medium. The yeast inoculum was prepared as described in the CLSI protocol M27-A3 guidelines. Plates were incubated at 37° C. and in the presence of 5% CO2 for 24-96 hours. Against all fungal isolates used in the initial susceptibility screen, the MICs were determined as the lowest concentration of the drug that inhibited 50% of growth compared to the control. MIC80 and MIC100, whose drug concentrations inhibited 80% and 100% growth compared to the control respectively, were also determined. For antibacterial activity, E. coli DH5a and P. aeruginosa PA14 were grown overnight in Luria Bertani (LB) broth at 30° C. The cells were washed with PBS and counted. Then, 300 μL from 2×10^8 cells/mL was spreaded onto LB agar plate using a hockey stick glass spreader. The plate was dried, and wells were punched out using a cut tip. Fifty microliters of different drug concentration was added to the well. The plate was then incubated at 30° C. for 24 hours.

HepG2 = HepG2 toxicity; assay type: cell-based; settings: Tables 1-3
A549 = A549 toxicity; assay type: cell-based; settings: Tables 1-3
C. neoformans cells = assay: In vitro killing activity (K100) assay; assay type: cell-based, Cryptococcus neoformans; settings: minimum concentration that kills 100% of C. neoformans cells in 48 h; for MFC: Cryptococcus neoformans
Description: C. neoformans cells from a culture grown overnight were washed in PBS and resuspended in YNB buffered with HEPES at pH 7.4. The cells were counted, and 2×10^4 cells were incubated with different concentration of compounds in a final volume of 10 ml with a final concentration of 0.5% DMSO. The tubes were then incubated at 37° C. with 5% CO2 on a rotary shaker at 200 rpm. Aliquots were taken at time points and diluted, and […] were plated onto Yeast Extract-Peptone-Dextrose (YPD) plates. YPD plates were incubated in a 30° C. incubator and after 48 h, the numbers of CFU were counted and recorded.

C. neoformans [2] = assay: In vitro susceptibility (MIC80) assay; assay type: cell-based; settings: Cryptococcus neoformans; lowest concentration that inhibited 80% of growth; YNB pH 7.0, HEPES, 37° C., 5% CO2
Description: MICs was determined following the methods of the Clinical and Laboratory Standards Institutes (CLSI) with modifications. Yeast Nitrogen Base (YNB) medium (pH 7.0, 0.2% glucose) buffered with HEPES was used for MIC studies. […] The compound was serially diluted from 16 to 0.03 μg/ml, in a 96-well plate. The inoculum was prepared as described in the CLSI protocol M27A3 guidelines. The plates were incubated at 37° C. with 5% CO2 for 24 to 72 h and the optical density was measure at 450 nm. The MICs was determined as the lowest concentration of the compound that inhibited 80% of growth compared to the control.

SMILES | IC80 (C. neoformans [1]) | HepG2 (HepG2) | A549 (A549) | MFC (C. neoformans cells) | MIC80 (C. neoformans [2]) | K100* (μg/mL) (C. neoformans cells)
Cc1ccc(O)c(/C=N/NC(=O)c2cc(Br)ccc2O)c1 | 0.25 µg/mL (≈ 0.716 µM) | 16 µg/mL | 16 µg/mL |  |  | 
Cc1ccc(O)c(/C=N/NC(=O)c2ccc(Br)cc2Br)c1 | 1 µg/mL (≈ 2.43 µM) | 16 µg/mL | 32 µg/mL |  |  | 
Cc1ccc(O)c(/C=N/NC(=O)c2cc(Br)ccc2Br)c1 | 1 µg/mL (≈ 2.43 µM) | 32 µg/mL | 32 µg/mL |  |  | 
O=C(N/N=C/c1cc(Cl)ccc1O)c1ccc(Br)cc1Br | 0.25 µg/mL (≈ 0.578 µM) | 64 µg/mL | 64 µg/mL |  |  | 
O=C(N/N=C/c1cc(Cl)ccc1O)c1cccc(F)c1F | 1 µg/mL (≈ 3.22 µM) | 32 µg/mL | 72 µg/mL |  |  | 
O=C(N/N=C/c1c(O)ccc2ccccc12)c1ccc(Br)cc1Br | 0.12 µg/mL (≈ 0.268 µM) | >32 µg/mL | 16 µg/mL |  |  | 
O=C(N/N=C/c1cc(Br)ccc1O)c1ccc(Br)c(Br)c1 [Compound A33, 3,4-Dibromo-N′-(5-bromo-2-hydroxybenzylidene)benzohydrazide] |  |  |  | 2 µg/mL (≈ 4.19 µM) | 0.25 µg/mL (≈ 0.524 µM) | 
Cc1ccc(O)c(/C=N/NC(=O)c2ccc(Br)c(Br)c2)c1 [Compound A34, 3,4-Dibromo-N′-(2-hydroxy-5-methylbenzylidene)benzohydrazide] |  |  |  | > 1 µg/mL | 0.12 µg/mL (≈ 0.291 µM) | 
O=C(N/N=C/c1ccc(Br)cc1O)c1ccc(Br)c(Br)c1 [Compound A35, 3,4-Dibromo-N′-(4-bromo-2-hydroxybenzylidene)benzohydrazide] |  |  |  | > 5 µg/mL | 0.06 µg/mL (≈ 0.126 µM) | 
O=C(N/N=C/c1cc(Br)ccc1O)c1cc(Br)cc(Br)c1 [Compound A36, 3,5-Dibromo-N′-(5-bromo-2-hydroxybenzylidene)benzohydrazide] |  |  |  | > 5 µg/mL | 0.06 µg/mL (≈ 0.126 µM) | 
O=C(N/N=C/c1c(O)ccc2ccccc12)c1cc(Br)cc(Br)c1 [Compound A37, 3,5-Dibromo-N′-(2-hydroxy-1-naphthylidene)benzohydrazide] |  |  |  | 0.5 µg/mL (≈ 1.12 µM) | 0.25 µg/mL (≈ 0.558 µM) | 
O=C(N/N=C/c1cc(Cl)cc(Cl)c1O)c1cc(Br)cc(Br)c1 [Compound A38, 3,5-Dibromo-N′-(3,5-dichloro-2-hydroxybenzylidene)benzohydrazide] |  |  |  | 0.5 µg/mL (≈ 1.07 µM) | 0.5 µg/mL (≈ 1.07 µM) | 
O=C(N/N=C/c1ccc(Br)cc1O)c1cc(Br)cc(Br)c1 [Compound A39, 3,5-Dibromo-N′-(4-bromo-2-hydroxybenzylidene)benzohydrazide] |  |  |  | 1 µg/mL (≈ 2.1 µM) | 1 µg/mL (≈ 2.1 µM) | 
O=C(N/N=C/c1cc(Cl)ccc1O)c1cc(Br)cc(Br)c1 [Compound A40, 3,5-Dibromo-N′-(5-chloro-2-hydroxybenzylidene)benzohydrazide] |  |  |  | 1 µg/mL (≈ 2.31 µM) | 0.12 µg/mL (≈ 0.277 µM) | 
Cc1ccc(O)c(/C=N/NC(=O)c2cc(Br)cc(Br)c2)c1 [Compound A41, 3,5-Dibromo-N′-(2-hydroxy-5-methylbenzylidene)benzohydrazide] |  |  |  | 1 µg/mL (≈ 2.43 µM) | 0.5 µg/mL (≈ 1.21 µM) | 
O=C(N/N=C/c1cc(Br)cc(Br)c1O)c1cccc(Br)c1Br [Compound A42, 2,3-Dibromo-N′-(3,5-dibromo-2-hydroxybenzylidene)benzohydrazide] |  |  |  | 0.5 µg/mL (≈ 0.9 µM) | 0.5 µg/mL (≈ 0.9 µM) | 
O=C(N/N=C/c1cc(Cl)cc(Cl)c1O)c1cccc(Br)c1Br [Compound A43, 2,3-Dibromo-N′-(3,5-dichloro-2-hydroxybenzylidene)benzohydrazide] |  |  |  | 1 µg/mL (≈ 2.14 µM) | 1 µg/mL (≈ 2.14 µM) | 

SMILES | IC80 (C. neoformans [1]) | HepG2 (HepG2) | A549 (A549) | MFC (C. neoformans cells) | MIC80 (C. neoformans [2]) | K100* (μg/mL) (C. neoformans cells)
O=C(N/N=C/c1cc(Br)cc(Br)c1O)c1ccc(CF)cc1 [Compound A44, 4-Fluromethyl-N′-(3,5-dibromo-2-hydroxybenzylidene)benzohydrazide] |  |  |  | 0.5 µg/mL (≈ 1.16 µM) | 0.5 µg/mL (≈ 1.16 µM) | 
C#Cc1ccc(C(=O)N/N=C/c2cc(Br)cc(Br)c2O)cc1 [Compound A46, 4-Ethynyl-N′-(3,5-dibromo-2-hydroxybenzylidene)benzohydrazide] |  |  |  |  | 0.12 µg/mL (≈ 0.284 µM) | Fungistatic
O=C(N/N=C/c1cc(Br)cc(Br)c1O)c1ncc(Br)cn1 [Compound H1, 5-Bromo-N′-(3,5-dibromo-2-hydroxybenzylidene)pyrimidine-2-carbohydrazide] |  |  |  | > 2 µg/mL | 0.25 µg/mL (≈ 0.522 µM) | 
O=C(N/N=C/c1cc(Br)ccc1O)c1ccc(Br)s1 [Compound H2, 5-Bromo-N′-(5-bromo-2-hydroxybenzylidene)thiophene-2-carbohydrazide] |  |  |  | > 0.5 µg/mL | 0.12 µg/mL (≈ 0.297 µM) | 
O=C(N/N=C/c1ccc(Br)cc1O)c1ccc(Br)s1 [Compound H3, 5-Bromo-N′-(4-bromo-2-hydroxybenzylidene)thiophene-2-carbohydrazide] |  |  |  | > 0.5 µg/mL | 0.12 µg/mL (≈ 0.297 µM) | 
O=C(N/N=C/c1cc(Br)cc(Br)c1O)c1ccc(Br)s1 [Compound H4, 5-Bromo-N′-(3,5-dibromo-2-hydroxybenzylidene)thiophene-2-carbohydrazide] |  |  |  | > 0.25 µg/mL | 0.06 µg/mL (≈ 0.124 µM) | 
O=C(N/N=C/c1c(O)ccc2ccccc12)c1ccc(Br)s1 [Compound H5, 5-Bromo-N′-((2-hydroxynaphthalen-1-yl)methylene)thiophene-2-carbohydrazide] |  |  |  | > 0.5 µg/mL | 0.12 µg/mL (≈ 0.32 µM) | 
O=C(N/N=C/c1cc(Br)ccc1O)c1cc(Br)c(Br)o1 [Compound H7, 4,5-Dibromo-N′-(5-bromo-2-hydroxybenzylidene) furan-2-carbohydrazide] |  |  |  | > 1 µg/mL | 0.25 µg/mL (≈ 0.535 µM) | 
O=C(NN=Cc1ccc(Br)cc1O)c1cc(Br)c(Br)o1 [Compound H8, 4,5-Dibromo-N′-(4-bromo-2-hydroxybenzylidene)furan-2-carbohydrazide] |  |  |  | > 0.25 µg/mL | 0.06 µg/mL (≈ 0.129 µM) | 
O=C(N/N=C/c1cc(Br)cc(Br)c1O)c1cc(Br)c(Br)o1 [Compound H9, 4,5-Dibromo-N′-(3,5-dibromo-2-hydroxybenzylidene)furan-2-carbohydrazide] |  |  |  | > 0.5 µg/mL | 0.12 µg/mL (≈ 0.22 µM) | 
O=C(N/N=C/c1c(O)ccc2ccccc12)c1cc(Br)c(Br)o1 [Compound H10, 4,5-Dibromo-N′-(2-hydroxynaphthalen-1-yl)methylenefuran-2-carbohydrazide] |  |  |  | > 0.5 µg/mL | 0.12 µg/mL (≈ 0.274 µM) | 
O=C(N/N=C/c1cc(Br)ccc1O)c1cc(Br)co1 [Compound H11, 4-Bromo-N′-(5-bromo-2-hydroxybenzylidene)furan-2-carbohydrazide] |  |  |  | > 1 µg/mL | 0.25 µg/mL (≈ 0.644 µM) | 
O=C(N/N=C/c1ccc(Br)cc1O)c1cc(Br)co1 [Compound H12, 4-Bromo-N′-(4-bromo-2-hydroxybenzylidene) furan-2-carbohydrazide] |  |  |  | > 2 µg/mL | 0.5 µg/mL (≈ 1.29 µM) | 
O=C(N/N=C/c1cc(Br)cc(Br)c1O)c1cc(Br)co1 [Compound H13, 4-bromo-N′-(3,5-dibromo-2-hydroxybenzylidene)furan-2-carbohydrazide] |  |  |  | > 0.25 µg/mL | 0.06 µg/mL (≈ 0.129 µM) | 
O=C(N/N=C/c1ccc(Br)cc1O)c1ccoc1 [Compound H14, N′-(4-bromo-2-hydroxybenzylidene) furan-3-carbohydrazide] |  |  |  | > 1 µg/mL | 0.5 µg/mL (≈ 1.62 µM) | 
O=C(N/N=C/c1cc(Br)cc(Br)c1O)C1CCOCC1 [Compound H15, N′-(3,5-dibromo-2-hydroxybenzylidene)tetrahydro-2H-pyran-4-carbohydrazide] |  |  |  | > 2 µg/mL | 0.5 µg/mL (≈ 1.23 µM) | 

Source: US11414378B2, “Anti-fungals compounds targeting the synthesis of fungal sphingolipids” (THE RESEARCH FOUNDATION FOR THE STATE UNIVERSITY OF NEW YORK, priority 2017, dated 2022)
